Measurements: paper PMC11755785 (Langmuir, 2025)

Columns and labels:
Assay type in all cases: physicochemical
[1] = Phase-solubility diagram with HP-β-CD; design: stability constant K1:2 with HP-β-CD: unit not given here
[2] = UVA1 (365 nm) photodegradation in isochoric acetonitrile/water solvent; conditions: UVA1 365 nm, 25 μM
Experimental: (§1) The samples were obtained after passage for appropriate periods and measured using an UV–vis spectrophotometer in the maximum range between 200 and 700 nm (arranged on demand) from long wavelengths toward short wavelengths to avoid unnecessary irradiation of the UV region. To obtain HPLC chromatograms, aliquots of the UV-irradiated solution were obtained by pipetting at 0, 1/5, 1/2, 1, 2, 3, 4, 24, 48, 72, 96, 120, 144, and 168 h for AVB and at 0, 1, 2, 3, and 18 h for CUR. To obtain those of OXB in the absence or presence of β-CD, the invariable samples were certified at 0 and 48 h. For the samples in acetonitrile aqueous solution or methanol aqueous solution at a ratio of 7:3, the time evolution of the UVA1 irradiated solution was examined under similar conditions.

[3] = UVA1 (365 nm) photodegradation in aqueous buffer, UV–vis spectra / RP-HPLC; conditions: for UVA1 photodegradation (spectral change): 50 μM, aqueous; for diketo increase to the keto-enol decrease: UVA1 365 nm
Experimental: as §1

[4] = 1H NMR titration of keto-enol and diketo tautomeric species
Experimental: ^1H NMR measurements were conducted using a 400 MHz NMR spectrometer (JNM-ECZ 400 S, Japan Electronics Co., Ltd., Tokyo, Japan). Sample solutions were prepared using D2O and methanol-d4 as the protic solvent, acetonitrile-d3 as the aprotic solvent, and their mixtures, with sample concentrations exceeding 1.5% (w/v). The chemical shifts of the samples were calibrated using the internal tetramethylsilane (TMS) signal as the zero point, whereas the solvent signals in the literature served as reference points. When sodium salts were required, the neutral AVB species in D2O were dissolved in equimolar amounts of aqueous NaOH and methanol-d4, followed by drying under reduced pressure in a rotary evaporator and heating to dryness below Tm of the sodium salts. The formation of sodium salts was confirmed by measuring Tm using a differential scanning calorimeter (DSC8230, Rigaku Co., Ltd., Tokyo, Japan).
In the one-dimensional (1D) ^1H NMR spectra, the integral intensities correspond to the relative stoichiometry of protons for the species, except for the signals assigned to the stable isotopes of deuterated solvents. We could recognize the aromatic proton signals of AVB, but the corresponding signals sometimes overlapped between its keto-enol and diketo species, depending upon the solvent composition. The signals of the aromatic protons at the para positions to the keto/enol substituents were neglected because of the high probability of overlap, in which the chemical shift drifts, Δδ, related to the shielding effect are not noticeably accompanied by the electronic states in the keto/enol substituents.
We chose the signals of the aromatic protons at the ortho positions and the aliphatic protons at the ortho substituents (tert-butyl and methoxy groups) to keto/enol substituents and measured their integral intensities. Using the simultaneous equations built as linear combinations of integral values for the isolated and overlapping signals, we determined the molar ratio of the keto-enol and diketo species.

[5] = regression with 2-order equation, pH 6.8
[6] = 70% methanol (methanol-d4/D2O = 7:3)
[7] = isochoric acetonitrile/water solvent

Which results are given for “p-tert-butyl-p-methoxydibenzoylmethane [AVB]”?
stability constant K1:2 with HP-β-CD ([1]; 25 mM Pi/NaOH buffer pH 6.8, 298 K, Figure 2): 40.4; stability constant K1:1 with HP-β-CD ([1]; 25 mM Pi/NaOH buffer pH 6.8, 298 K, Figure 2, in M-1 (unit assumed)): 90.3; stability constant K1:1 with HP-β-CD (equimolar complex) [1, 5]: 90.3 L/mol; stability constant K1:2 with HP-β-CD (1:2-ratio complex) [1, 5]: 40.4 L^2/mol^2; effect of equimolar and 4 mM β-CD on photodegradation velocity / first-order rate [2]: reduced the photodegradation velocity; UVA1 photodegradation (spectral change) ([3]; absence of β-CD): gradually photodegraded; UVA1 photodegradation (spectral change) ([3]; presence of β-CD): insignificantly degraded; diketo increase to the keto-enol decrease ([3]; 25 μM β-CD): 20.1%; diketo increase to the keto-enol decrease ([3]; 4 mM β-CD): 23.9%; diketo increase to the keto-enol decrease ([3]; no β-CD): 19.3%; molar ratio of diketo species [4, 6]: 15.3%; molar ratio of keto-enol species [4, 6]: 84.7%; molar ratio of diketo species [4, 7]: 9.3%; molar ratio of keto-enol species [4, 7]: 90.7%
